Data on 26 compounds can be found in patent publication US10774063B2, “Materials and method for inhibiting replication protein A and uses thereof” (INDIANA UNIVERSITY RESEARCH AND TECHNOLOGY CORPORATION, priority 2014, dated 2020).

Read-outs that look alike come from different tables or passages of the source. A value given as a limit tells only on which side of the number the result lay.

Data set [1] relates to A2780 EOC cell line. The data set is described as follows: Clonogenic survival assay in A2780 cells. The data set is classed as cell-based. As to conditions: 48 hours treatment, 1-200 μM, read-out: Cellular IC50. How it is done:
Referring now to cell culture, A2780 cells and A2780/R cells were purchased from Sigma. All other cell lines were from ATCC and routinely tested for mycoplasma contamination. Cells were maintained in RPMI media supplemented with 10% FBS (Atlanta Biological), penicillin and streptomycin. Cultures were incubated at 37° C. in 5% CO2 and sub-cultured 2-3 times per week.
(§1) Referring now to clonogenic survival assays, cells were plated in a 6 well (100,000 cells/well) or 24 well (25,000 cells/well) plate, incubated for at least 18 hours and then treated with Pt/etoposide and/or RPA inhibitors. After 48 hours of treatment, the cells were re-plated in 10 cm dishes (500-1000 cells/dish) and incubated for 8-10 days to allow colony formation. Plates were then washed with PBS, fixed with glutaraldehyde (Fisher Scientific) and stained with crystal violet (Acros Organics). The colonies were then counted using an Acolyte Synbiosis colony counter, viability determined versus vehicle controls which were plotted versus drug concentration.

Data set [2] relates to A2780 cells. Briefly: Assessment of synergy via combination index (Chou-Talalay), colony formation. The data set is classed as cell-based. To be noted: A2780, at 0.5 or higher fraction of cells affected. How it is done:
as §1
Referring now to Assessment of Synergy via Combination Index, in the combination index studies, the A2780 cells were treated with RPA inhibitor and Pt/etoposide alone as well as the combination of both—the inhibitor and the DNA damaging chemotherapeutic agent. The range of treatment was dependent on the IC50 of each inhibitor/drug. If the IC50 was X, then the cells were treated at a range of X/4 to 3X concentration in a colony formation assay. […]

Data set [3] is described as follows: Preliminary pharmacokinetic analysis. In kind it is in vivo, mice.
Data set [4] can be described thus: Safety and tolerability (body weight) in naive NOD/SCID mice. In kind it is in vivo. How it is done:
Referring now to in vivo analysis of TDRL-551, non-obese diabetic/severe combined immunodeficient mice (NOD/SCID) were obtained from The Jackson Laboratory. All animal studies were conducted under the guidelines of the NIH and were approved by the Institutional Animal Care and Use Committee of Indiana University School of Medicine. Animals were maintained under pathogen-free conditions and a 12-hour light-dark cycle. The safety and tolerability of TDRL-551 was assessed in naïve NOD/SCID mice. Mice were treated IP with increasing concentrations of TDRL-551 in a formulation consisting of 20% DMSO, 10% Tween 80, 70% PBS. Based on preliminary PK analysis and a half-life of ˜7 hours (data not shown) we administered 3 doses per week for two weeks and measured body weight every other day.

The target of data set [5] is full length, heterotrimeric human RPA (fl-RPA) (Homo sapiens (Human), UniProt P27694). The data set is described as follows: EMSA for inhibition of RPA-DNA binding activity (full length RPA). The method, then: Referring to protein purification, full length, heterotrimeric human RPA (fl-RPA) was expressed in E. coli and purified by a three column procedure as previously described (See Patrick S M and Turchi J, Replication Protein A (RPA) Binding to Duplex Cisplatin-damaged DNA Is Mediated through the Generation of Single-stranded DNA. J Biol Chem 1999; 274:14972-8). The DBD-A/B construct was expressed as a SUMO-His6-RPA^181-432 fusion protein. E. coli BL21 (DE3) cells in log growth were induced for 3 hours with 0.5 mM IPTG at 37° C. The cells were lysed in buffer containing 50 mM Tris pH 7.5, 300 mM NaCl, 10% sucrose, 10 mM imidazole, 25 μg/ml lysozyme, 1 μg/ml leupeptin, 1 μg/ml pepstatin and 0.5 mM PMSF. The lysate was loaded onto a Ni-NTA column washed and then incubated overnight with wash buffer containing 3 μg/ml ULP1 protease to cleave the SUMO tag. The cleaved His6-RPA^181-432 was eluted from the Ni-NTA column with elution buffer containing 350 mM imidazole. The His6-RPA was then further purified on a size exclusion column (SEC) to remove the cleaved SUMO tag fragment. The SEC pool was then concentrated and stored at −80° C.
Chain of full length, heterotrimeric human RPA (fl-RPA) (P27694 whole entry, the tested form may be a part): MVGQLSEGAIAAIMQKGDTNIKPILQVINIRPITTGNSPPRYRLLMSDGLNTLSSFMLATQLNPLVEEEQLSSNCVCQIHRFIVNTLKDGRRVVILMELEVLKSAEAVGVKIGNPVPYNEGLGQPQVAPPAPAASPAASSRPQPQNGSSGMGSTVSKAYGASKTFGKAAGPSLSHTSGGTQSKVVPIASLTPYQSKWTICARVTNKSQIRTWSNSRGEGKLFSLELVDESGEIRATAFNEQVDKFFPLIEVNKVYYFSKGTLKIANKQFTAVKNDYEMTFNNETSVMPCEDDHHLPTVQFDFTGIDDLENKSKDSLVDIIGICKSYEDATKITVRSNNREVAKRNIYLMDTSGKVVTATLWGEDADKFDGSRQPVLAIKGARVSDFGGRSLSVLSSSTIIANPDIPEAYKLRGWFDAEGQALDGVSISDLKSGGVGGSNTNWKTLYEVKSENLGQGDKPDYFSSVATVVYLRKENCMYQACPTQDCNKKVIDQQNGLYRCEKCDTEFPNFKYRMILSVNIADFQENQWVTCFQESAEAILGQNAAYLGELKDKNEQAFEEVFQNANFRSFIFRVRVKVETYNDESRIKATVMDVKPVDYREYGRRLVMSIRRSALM
Chain of full length, heterotrimeric human RPA (fl-RPA) (P15927 whole entry partner, the tested form may be a part): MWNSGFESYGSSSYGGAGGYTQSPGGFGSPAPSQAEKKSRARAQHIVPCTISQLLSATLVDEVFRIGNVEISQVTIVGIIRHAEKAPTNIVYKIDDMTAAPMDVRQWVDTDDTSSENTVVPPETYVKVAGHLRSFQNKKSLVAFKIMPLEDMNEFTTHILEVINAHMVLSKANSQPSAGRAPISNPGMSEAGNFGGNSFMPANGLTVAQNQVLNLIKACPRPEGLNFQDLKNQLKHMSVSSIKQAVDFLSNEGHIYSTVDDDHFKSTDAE
Chain of full length, heterotrimeric human RPA (fl-RPA) (P35244 whole entry partner, the tested form may be a part): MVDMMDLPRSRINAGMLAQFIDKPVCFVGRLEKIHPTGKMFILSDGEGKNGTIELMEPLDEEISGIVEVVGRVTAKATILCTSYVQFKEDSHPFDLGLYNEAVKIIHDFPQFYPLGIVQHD
Referring now to Electrophoretic Mobility Shift Assays (“EMSA”), EMSA reactions (20 μL) were performed with 50 nM fl-RPA and 2.5 nM 5′[^32P]-labeled 34-base DNA in buffer containing 20 mM HEPES (pH 7.0), 1 mM DTT, 0.001% NP-40, 100 mM NaCl, 5 mM MgCl2 and 50 μg/ml bovine serum albumin (BSA). Chemical compounds, either purchased from ChemDiv or synthesized in the laboratory, were suspended in DMSO and titrated as detailed in each figure. The DMSO concentration in the reaction mixture was kept constant at or below 5%. RPA was incubated with inhibitor or DMSO control in reaction buffer for 30 minutes before the addition of DNA. Reactions were incubated for 5 minutes at room temperature and products separated via 6% native polyacrylamide gel electrophoresis. The bound and unbound fractions were then quantified by phosphor-imager analysis using ImageQuant software (Molecular Dynamics, CA) and IC50 values calculated by non-linear regression using SigmPlot (Sysat). For EMSA reactions with RPA DBD-A/B, 150 nM DBD-A/B was used and electrophoresis was performed at 4° C. All other conditions were identical to those described for the full length RPA.
(In general: Mobility shift assays separate free from complexed probe on a gel.)

[6] abbreviates: EMSA, RPA incubated with compounds at 1-125 μM, read-out: In vitro IC50.
Where [7] appears, read: compounds titrated at 1-125 μM, read-out: IC50 calculated from EMSA reactions.

The IC50 is the midpoint of a concentration-inhibition curve. A word on the half-life: it is the time needed for the level to fall by half in the phase considered. Read a high half-life as slow loss. Take `CCOc1ccc2cc(C3CC(c4ccc(I)cc4)=NN3C(=O)CCCC(=O)O)c(Cl)nc2c1` (centres unmarked): in data set [1] (Homo sapiens), the IC50 turned out to be 25 µM. The “combination index (CI) with cisplatin” value in data set [2] is reported as under 1. In data set [3] (NOD/SCID, mouse, plasma, preliminary PK analysis), this compound showed a half-life of about 420 min. The same compound had a plasma concentration achieved in data set [3] (initial pharmacokinetic analysis) of over 20 µM. The “adverse effects / loss of weight” value in data set [4] (co-treatment with carboplatin, up to 200 mg/kg) is “no adverse effects or loss of weight”. Besides, the body weight change entry in data set [4] (intraperitoneal administration up to 200 mg/kg, 3 doses per week for two weeks) is on record as “no weight loss observed”. For the same compound, in data set [4] (intraperitoneal, 300 mg/kg), the body weight change entry is listed as “slight decrease in body weight” and the loss of weight is at most 10%. In the case of `CCOc1ccc2cc(C3CC(c4ccc(I)cc4)=NN3c3cccc(C(=O)O)c3)c(Cl)nc2c1` (centres unmarked) [NG-01-02], the IC50 in data set [5] (setting [6]) worked out at 75.5 µM. For the compound `CCOc1ccc2cc(C3CC(c4ccc(I)cc4)=NN3c3ccc(C(=O)O)cc3)c(Cl)nc2c1` (centres unmarked) [NG-01-04], the IC50 in data set [5] (setting [6]) was over 100 µM.

Regarding `CCOc1ccc2cc(C3CC(c4ccc(I)cc4)=NN3C(=O)CCCCC(=O)O)c(Cl)nc2c1` (centres unmarked) [NG-01-24], the IC50 in data set [5] (setting [6]) came to 7 µM.

Consider `CCOc1ccc2cc(C3CC(c4ccc(I)cc4)=NN3C(=O)CCCCCC(=O)O)c(Cl)nc2c1` (centres unmarked) [NG-01-25], for which, in data set [5] (setting [6]), the IC50 is 10 µM. Turning to `COc1ccc2cc(C3CC(c4ccc(Br)cc4)=NN3C(=O)CCCC(=O)O)c(Cl)nc2c1` (centres unmarked) [TDRL-533], the IC50 in data set [1] and in data set [5] (setting [6]) was over 50 µM in each case. As for `COc1ccc2cc(C3CC(c4ccc(Br)cc4)=NN3C(=O)CCCCC(=O)O)c(Cl)nc2c1` (centres unmarked) [TDRL-534], the IC50 in data set [5] (setting [6]) was 35 µM. Same read-out and setting: in the case of `COc1ccc2cc(C3CC(c4ccc(F)cc4)=NN3C(=O)CCCCC(=O)O)c(Cl)nc2c1` (centres unmarked) [TDRL-539] it was over 100 µM. Turning to `COc1ccc2cc(C3CC(c4ccc(F)cc4)=NN3C(=O)CCCC(=O)O)c(Cl)nc2c1` (centres unmarked) [TDRL-540], in data set [5] (setting [6]), the concentration for half-maximal inhibition (IC50) was over 100 µM.

In the case of `CCOc1ccc2cc(C3CC(c4ccc(Br)cc4)=NN3C(=O)CCCCC(=O)O)c(Cl)nc2c1` (centres unmarked) [TDRL-543], the IC50 in data set [1] was 50 µM; in data set [5] (setting [6]) it was 25 µM. Take `CC(C)Oc1ccc2cc(C3CC(c4ccc(Br)cc4)=NN3C(=O)CCCCC(=O)O)c(Cl)nc2c1` (centres unmarked) [TDRL-556]: in data set [5] (setting [6]), the IC50 is 43 µM. The same measure, in the same setting: in the case of `CCOc1ccc2cc(C3CC(c4ccc(OC(F)(F)F)cc4)=NN3C(=O)CCCCC(=O)O)c(Cl)nc2c1` (centres unmarked) [TDRL-557] it was 30 µM; in that of `CCOc1ccc2cc(C3CC(c4ccc(Br)nc4)=NN3C(=O)CCC(=O)O)c(Cl)nc2c1` (centres unmarked) [TDRL-617], over 100 µM; in that of `CCOc1ccc2cc(C3CC(c4cccc(I)c4)=NN3C(=O)CCCCC(=O)O)c(Cl)nc2c1` (centres unmarked) [TDRL-652], 15 µM. For the compound `COc1ccc(C2CC(c3ccccc3)=NN2C(=O)CCCC(=O)O)cc1OC` (centres unmarked) [a], the IC50 in data set [5] (setting [7]) is over 100 µM. Still for that read-out and setting: in the case of `COc1ccc(C2CC(c3ccc(C)cc3)=NN2C(=O)CCCC(=O)O)cc1OC` (centres unmarked) [b] it was over 100 µM; in that of `COc1ccc(C2=NN(C(=O)CCCC(=O)O)C(c3ccccc3OC)C2)cc1` (centres unmarked) [c], over 100 µM. Still for that read-out and setting: in the case of `CCOc1ccc2cc(C3CC(c4ccc(Br)cc4)=NN3C(=O)CCCC(=O)O)c(Cl)nc2c1` (centres unmarked) [d] it was 25 µM; in that of `CCOc1ccc2cc(C3CC(c4ccc(C)cc4)=NN3C(=O)CCC(=O)O)c(Cl)nc2c1` (centres unmarked) [e], 80 µM. Same read-out and setting: to `COc1ccc2cc(C3CC(c4ccc(Cl)cc4)=NN3C(=O)CCC(=O)O)c(Cl)nc2c1` (centres unmarked) [f] belongs 75 µM. Turning to `COc1ccc(C2=NN(C(=O)CCC(=O)O)C(c3cc4ccc(OC)cc4nc3Cl)C2)cc1` (centres unmarked) [g], in data set [5] (setting [7]), the IC50 was over 100 µM. On to `COc1ccc2cc(C3CC(c4ccc(OC)c(OC)c4)=NN3C(=O)CCC(=O)O)c(Cl)nc2c1` (centres unmarked) [h], for which, in data set [5] (setting [7]), the IC50 was over 100 µM. The same measure, in the same setting: in the case of `COc1ccc2cc(C3CC(c4ccc(C)cc4)=NN3C(=O)CCCC(=O)O)c(Cl)nc2c1` (centres unmarked) [i] it was over 100 µM. The same measure, in the same setting: in the case of `COc1ccc2cc(C3CC(c4ccc(Cl)cc4)=NN3C(=O)CCCC(=O)O)c(Cl)nc2c1` (centres unmarked) [j] it was 60 µM.

For `COc1ccc2cc(C3CC(c4ccc(OC)c(OC)c4)=NN3C(=O)CCCC(=O)O)c(Cl)nc2c1` (centres unmarked) [k], the IC50 in data set [5] (setting [7]) was over 100 µM. Still for that read-out and setting: in the case of `O=C(O)CCCC(=O)N1N=C(c2ccccc2)CC1c1cc2cc3c(cc2nc1Cl)OCCO3` (centres unmarked) [l] it was over 100 µM.
